Structures can show the parent of a compound that is named as a salt.
How the values were obtained:
[1] = test system: anaesthetised rabbit model of female sexual arousal; test: Anaesthetised rabbit model of female sexual arousal: pelvic nerve stimulated genital blood flow (laser Doppler); type: in vivo; conditions: for Potentiation of pelvic nerve stimulated increases in vaginal blood flow (% increase over basal increase): i.v. infusion, n=4
Text: We have developed an animal model that mimics the physiological arousal response observed during female sexual arousal and directly reflects the clinical data obtained in human volunteers. The model uses Laser Doppler technologies to record small changes in vaginal and clitoral blood flow induced by pelvic nerve stimulation or vasoactive neurotransmitters. During sexual arousal, there is an increase in genital blood flow resulting from increased innervation from the pelvic nerve. The pelvic nerve-stimulated increase in vaginal and clitoral blood flow, observed in the animal model, represents the endogenous vascular effects observed during female sexual arousal. Therefore this model can be used to firstly, identify the mechanisms involved in the regulation of vaginal and clitoral blood flow and secondly, to validate novel approaches for the enhancement of genital blood flow.
(a) The Experimental Details are Described in European patent application EP 1 097 719 A1, Paragraphs [0495]-[0500]
(b) Infusion of Test Compound to Achieve Free Plasma Concentration Equivalent to 0.1 to 100 Times the pA2 α1A and/or α1L Adrenergic Receptors.
To achieve steady state plasma concentrations of the test compound, a loading dose was administered followed by infusion of a steady state dose. The test compound was made up in acidified saline (5% 1M HCl in saline) and details of the infusion protocols are given in the Table below. Test compound and vehicle controls were infused at the same rate. The test compound was infused for 15 minutes prior to pelvic nerve stimulation.
All data are reported as mean±s.e.m. (Standard error of the mean). Significant changes were identified using Student's t-tests (independent).
Compound 1, a potent and selective α1A and/or α1L adrenergic receptor antagonist, enhanced pelvic nerve stimulated (PNS) increases in genital blood flow in the anaesthetised rabbit model of sexual arousal. Repetitive PNS at 15 minute intervals induced reproducible increases in genital blood flow (Open Bar). […] The percentage increase over basal stimulations are showin in table 1 below. […] Data expressed as mean±sem (n=4); all changes were monitored using laser Doppler technologies.

FSAD = conditions: Rosen, R. C. et al (1999) J. Sex Marital Therapy 25, 137-144; cited from earlier work

SMILES | Clitoral blood flow ([1]; data not shown) | Cardiovascular effects ([1]; during infusion) | Potentiation of pelvic nerve stimulated increases in vaginal blood flow (% increase over basal increase) ([1]; free plasma concentration 0.1 × pA2 α1A and/or α1L) | Potentiation of pelvic nerve stimulated increases in vaginal blood flow (% increase over basal increase) ([1]; free plasma concentration 1 × pA2 α1A and/or α1L) | Potentiation of pelvic nerve stimulated increases in vaginal blood flow (% increase over basal increase) ([1]; free plasma concentration 10 × pA2 α1A and/or α1L) | Potentiation of pelvic nerve stimulated increases in vaginal blood flow (% increase over basal increase) ([1]; free plasma concentration 100 × pA2 α1A and/or α1L) | Pelvic nerve stimulated (PNS) increases in genital blood flow ([1]; submaximal stimulation (eg 4 Hz), versus time matched or vehicle controls) | Effect on FSAD in small pilot study (FSAD)
COc1cc(C2CC2)c2c(=O)[nH]c(N3CCc4nc(CN5CCOCC5)ccc4C3)nc2c1 [Compound 1, 5-cyclopropyl-7-methoxy-2-(2-(4-morpholinylmethyl)-7,8-dihydro[1,6]naphthyridin-6(5H)-yl)-4(3H)-quinazolinone] | increased | No significant cardiovascular effects | 39% | 102% | 104% | 213% | enhanced | 
Cc1ccc(N(CC2=NCCN2)c2cccc(O)c2)cc1 [Phentolamine mesylate] |  |  |  |  |  |  |  | mild improvements
